B1: CO3A1: Collagen 3A1 recombinant protein (R&D Systems) coated on culture plates (protein, UniProt P02461 154-1221, looked up)
Collagen alpha-1(III) chain: QYDSYDVKSGVAVGGLAGYPGPAGPPGPPGPPGTSGHPGSPGSPGYQGPPGEPGQAGPSGPPGPPGAIGPSGPAGKDGESGRPGRPGERGLPGPPGIKGPAGIPGFPGMKGHRGFDGRNGEKGETGAPGLKGENGLPGENGAPGPMGPRGAPGERGRPGLPGAAGARGNDGARGSDGQPGPPGPPGTAGFPGSPGAKGEVGPAGSPGSNGAPGQRGEPGPQGHAGAQGPPGPPGINGSPGGKGEMGPAGIPGAPGLMGARGPPGPAGANGAPGLRGGAGEPGKNGAKGEPGPRGERGEAGIPGVPGAKGEDGKDGSPGEPGANGLPGAAGERGAPGFRGPAGPNGIPGEKGPAGERGAPGPAGPRGAAGEPGRDGVPGGPGMRGMPGSPGGPGSDGKPGPPGSQGESGRPGPPGPSGPRGQPGVMGFPGPKGNDGAPGKNGERGGPGGPGPQGPPGKNGETGPQGPPGPTGPGGDKGDTGPPGPQGLQGLPGTGGPPGENGKPGEPGPKGDAGAPGAPGGKGDAGAPGERGPPGLAGAPGLRGGAGPPGPEGGKGAAGPPGPPGAAGTPGLQGMPGERGGLGSPGPKGDKGEPGGPGADGVPGKDGPRGPTGPIGPPGPAGQPGDKGEGGAPGLPGIAGPRGSPGERGETGPPGPAGFPGAPGQNGEPGGKGERGAPGEKGEGGPPGVAGPPGGSGPAGPPGPQGVKGERGSPGGPGAAGFPGARGLPGPPGSNGNPGPPGPSGSPGKDGPPGPAGNTGAPGSPGVSGPKGDAGQPGEKGSPGAQGPPGAPGPLGIAGITGARGLAGPPGMPGPRGSPGPQGVKGESGKPGANGLSGERGPPGPQGLPGLAGTAGEPGRDGNPGSDGLPGRDGSPGGKGDRGENGSPGAPGAPGHPGPPGPVGPAGKSGDRGESGPAGPAGAPGPAGSRGAPGPQGPRGDKGETGERGAAGIKGHRGFPGNPGAPGSPGPAGQQGAIGSPGPAGPRGPVGPSGPPGKDGTSGHPGPIGPPGPRGNRGERGSEGSPGHPGQPGPPGPPGAPGPCCGGVGAAAIAGIGGEKAGGFAPYYG

Assays:
[1] = test system: differentiated human adipocytes; test: Thermogenic gene expression in human adipocytes in vitro by real-time PCR; format: cell-based
Procedure: RNA from iWAT tissue and cells was isolated and purified using a Qiagen Rneasy Mini Kit (Valencia, CA) according to manufacturer guidelines. mRNA concentrations were measured using a Take3 Micro-Volume Plate (BioTek, Winooski, VT), then normalized to 150 ng of mRNA for conversion to cDNA. cDNA was synthetized using random hexamer primers and an iScript cDNA-synthesis kit (Biorad). The quantitative RT-PCR reactions were performed using the So Advanced™ Universal SYBER Green Supermix kit (Biorad) in a CFX96 Touch Real-Time PCR Detection System (BioRad, Hercules, CA). Fold expression levels were calculated using the […]. Transcript levels were normalized to 18S ribosomal RNA levels in all experiments. Primer (Table 1) specificity was tested by assessing the melting curve.

[2] = test system: adipose derived stem cells (ASCs) isolated from WT SubQ WAT; test: Beige differentiation of ASCs on ECM protein coated surfaces, beige marker expression by RT-PCR; format: cell-based, mice; settings: for reduction in UCP1 relative to uncoated surfaces: ASCs beige-differentiated on coated surface; for COX7A1 expression: differentiated cells on coated surface
Procedure: Immunohistochemistry. SubQ fat was harvested from animals using sterile techniques, cut into small pieces and fixed in 4% paraformaldehyde for 24 hours at 4 degrees. Tissue pieces were then washed with phosphate buffered saline (PBS), permeabilized with 0.5% triton in PBS and blocked with 10% donkey serum; followed by incubation with either 1) ITA7 antibody (1:100, Novus Biologics NBP1-86,118) and Griffonia simplicifolia isolectin conjugated with Rhodamine to labels endothelial cells, or 2) ITA7 antibody and CD68 antibody (1:100, Santa Cruz sc-70761) to label macrophages for 48 hours at 4 degrees. After washes (3×15 minutes), the tissues were incubated with second antibodies (Alexa Fluor 647 Donkey Anti-Rabbit IgG and/or TRITC Goat Anti-Mouse, IgG), BODIPY to stain lipid droplets and DAPI to stain the nuclei, for 2 hours at room temperature. Confocal imaging. A confocal laser-scanning microscope was used to image samples (Leica TCS SP8 Confocal Microscope; Buffalo Grove, IL). Adipocytes labeled by BODIPY and ITA7 labeled by Alexa Fluor 647 were imaged simultaneously in two channels, with Rhodamine-labeled endothelial tissue or TRITC CD68-labeled macrophages, and DAPI nuclei imaged in series. Confocal image stacks were obtained with a 63×oil immersion lens (NA 1.4). Laser intensity, confocal aperture, and photomultiplier gain were kept constant across samples. Image processing and analysis: Confocal image stacks were processed and analyzed using Leica LASX software version 3.5.2 (Wetzlar, Germany). The Alexa 647 and Rhodamine channels were thresholded and the intersection between both layers was quantified in order to characterize the colocalization between ITA7 and endothelial cells. In separate tissue, the colocalization between ITA7 and CD68 positive cells was also quantified. Using 3D images, the Alexa 647, Rhodamine or TRITC and intersection area per cell were calculated. cytoNet image analysis: cytoNet is a software accessible over the web that quantifies the spatial relationships in cell communities using principles of graph theory and evaluates the effect of cell-cell interactions on individual cell phenotypes (https://www.braininitiative.org/toolmakers/resources/cytonet/). Image files were segmented manually and provided as input to cytoNet. Because blood vessels have noncircular shapes, the minimum distance between object perimeters was computed in order to define graph edges. The resulting cell-to-cell perimeter distance and cells characteristics were analyzed in WT and KO SubQ WAT images. RNA isolation and quantitative RT-PCR. RNA from tissue and cells was isolated and purified using a Qiagen RNeasy Mini Kit (Valencia, CA) according to manufacturer guidelines. mRNA concentrations were measured using a Take3 Micro-Volume Plate (BioTek. Winooski, VT), then normalized to 150 ng of mRNA for conversion to cDNA. cDNA was synthetized using random hexamer primers and an iScript cDNA-synthesis kit (Biorad). The quantitative RT-PCR reactions were performed using the So Advanced™ Universal SYBER Green Supermix kit (Biorad) in a CFX96 Touch Real-Time PCR Detection System (BioRad, Hercules. CA). Fold expression levels were calculated using the 2^ΔΔCt method. Transcript levels were normalized to 18S ribosomal RNA levels in all experiments that used mice cells (FIGS. 3, 4, 7), or the GAPDH reference gene in experiments with human cells (FIG. 6). Primer (Table 1) specificity was tested by the assessing the melting curve. Western blot analysis. Cells were lysed using CelLytic (Sigma, St. Louis, MO) and tissue was lysed using RIPA buffer (EMD Millipore, Billerica, MA) and protease inhibitor cocktail (Fischer Scientific, Waltham, MA). Protein concentration was determined using the Bio-Rad DC protein assay (Bio-Rad Laboratories, Hercules. CA). […]

ASCs = test: Hydrogen peroxide (ROS-Glo H2O2) assay of ASCs differentiated on coated surfaces; format: cell-based, mice; settings: compared to uncoated surface

Row | Molecule | peak of efficacy on browning after administration [1] | increase in Cox7A1 gene expression ([1]; 6 h of treatment) | increase in UCP1 gene expression ([1]; 6 h of treatment) | reduction in UCP1 relative to uncoated surfaces [2] | PGC1A levels ([2]; compared to uncoated surfaces) | COX7A1 expression [2] | ROS levels (ASCs)
1 | C=C[C@@]1(C)CC(=O)[C@]2(O)[C@@]3(C)[C@@H](O)CCC(C)(C)[C@@H]3[C@H](O)[C@H](OC(C)=O)[C@@]2(C)O1 [FSK, (13R)-1α,6β,9α-Trihydroxy-11-oxo-8α,13-epoxylabd-14-en-7β-yl acetate] | ~ 6 h | 1.5 fold | ~ 5 fold |  |  |  | 
2 | CO1A1: Collagen 1A1 recombinant protein (R&D Systems) coated on culture plates |  |  |  | 71.7% | significant decrease | significant decrease | 
3 | LAMA4: Laminin α4 recombinant protein (R&D Systems) coated on culture plates |  |  |  | 51.4% |  | significant decrease | higher ROS levels
4 | B1 |  |  |  | 91.16% |  | significant decrease | 
